According to patent US20080200532A1 (Teva Pharmaceuticals USA, Inc. for Barbados, priority 2003, published 2008):

Experiments:
[1] = according to the '340 patent; cited from earlier work
[2] = Stability study of Form XIV, polymorph content by X-Ray Powder Diffraction analysis; type: physicochemical
Text: [table] Powder X-ray diffraction data were obtained using methods known in the art on a […] powder X-ray diffractometer model X'TRA equipped with a solid state detector. Copper radiation of 1.5418 Å was used. A round aluminum sample holder with zero background was used.

[3] = Stability studies, appearance after storage; type: physicochemical; settings: storage at 40 EC for three months

| Polymorph content by X-Ray Powder Diffraction analysis ([2]; 25° C., 60% RH, 1 M) | Polymorph content by X-Ray Powder Diffraction analysis ([2]; 25° C., 60% RH, 2 M) | Polymorph content by X-Ray Powder Diffraction analysis ([2]; 25° C., 60% RH, 3 M) | Polymorph content by X-Ray Powder Diffraction analysis ([2]; 40° C., 75% RH, 1 M) | Polymorph content by X-Ray Powder Diffraction analysis ([2]; 40° C., 75% RH, 2 M) | Polymorph content by X-Ray Powder Diffraction analysis ([2]; 40° C., 75% RH, 3 M) | Polymorph content by X-Ray Powder Diffraction analysis ([2]; 55° C., 1 M) | Polymorph content by X-Ray Powder Diffraction analysis ([2]; 55° C., 2 M) | Polymorph content by X-Ray Powder Diffraction analysis ([2]; 55° C., 3 M) | Transformation into Form B upon storage ([2]; storage at 25, 40 and 55° C., for at least 3 months) | Polymorph content by X-Ray Powder Diffraction analysis ([2]; t = 0) | Change of appearance (white to pale yellow powder) after storage [3] | Compound | Hygroscopicity [1] |
| --- | --- | --- | --- | --- | --- | --- | --- | --- | --- | --- | --- | --- | --- |
|  |  |  |  |  |  |  |  |  |  |  |  | CC(C)n1c(/C=C/[C@@H](O)C[C@@H](O)CC(=O)O)c(-c2ccc(F)cc2)c2ccccc21 (racemic) [Form B, fluvastatin sodium] | low hygroscopicity |
| XIV | XIV | XIV | XIV | XIV | XIV | XIV | XIV | XIV | no more than 5% | XIV | does not change | CC(C)n1c(/C=C/[C@@H](O)C[C@@H](O)CC(=O)O)c(-c2ccc(F)cc2)c2ccccc21 (relative stereo) [Form XIV, [R*,S*-(E)]-(±)-7-[3-(4-fluorophenyl)-1-(1-methylethyl)-1H-indol-2-yl]-3,5-dihydroxy-6-heptenoic acid monosodium] |  |
